One test has as its system chymopapain. As to the kind of experiment: Chymopapain protease activity, hydrolysis of BAPNA synthetic substrate (absorbance 415 nm). The class given is biochemical, papaya. Conditions: for Chymopapain % Inhibited: 37° C., Tricine buffer 50 mM, 10 mM CaCl2. The procedure:
(§1) The invention will be better understood by reference to the following nonlimiting examples which illustrate the use of the animal-derived polysaccharide materials of the present invention in inhibiting various enzymes. In these examples the activities of chymopapain and papain were determined by assay using BAPNA, N-benzoyl-L-arginine-p-nitroanilide synthetic substrate by measuring the increase in absorbance at 415 nm. The activity of clostripain was determined by assay using BAEE, N-benzoyl-L-arginine ethyl ester synthetic substrate by measuring the increase in absorbance at […]. The activity of trypsin was determined by assay using BAPNA.
(§2) Protease activity was determined by measuring the reaction rates for the hydrolysis of synthetic substrates for the enzymes trypsin, chymopapain, papain, and clostripain. The increase in absorbance at 415 nm was used for the measurement of the reaction rates for trypsin, chymopapain and papain upon a BAPNA substrate. The increase in absorbance at 253 nm was used for the measurement of the reaction rates for clostripain. Trypsin, chymopapain and papain activities were determined at 37° C. in Tricine buffer, 50 mM, containing 10 mM CaCl2. Clodytipain activity was determined at room temperature. Chymopapain, papain, and clostripain were activated with L-cysteine or dithiothreitol reducing agent prior to assay. Concentration of reducing agent in the substrate solution was maintained at 5 mM by addition of reducing agent to the substrate solution.
(§3) Glycogen was dissolved in the assay buffer to a final concentration of 1%. The percentage inhibition was obtained from the ratio of enzyme activity in the presence of inhibitor to the activity of a control to which no inhibitor was added.

The subject of the next test is trypsin. As to the kind of experiment: Trypsin protease activity, hydrolysis of BAPNA synthetic substrate (absorbance 415 nm). The class given is biochemical. Conditions: for Trypsin % Inhibited: 37° C., Tricine buffer 50 mM, 10 mM CaCl2. The protocol: as §1, §2, §3
For the next test, the system named is clostripain. As to the kind of experiment: Clostripain protease activity, hydrolysis of BAEE synthetic substrate (absorbance 253 nm). The class given is biochemical. To be noted: for Clostripain % Inhibited: room temperature. The procedure: as §1, §2, §3
The next test concerns papain. As to the kind of experiment: Papain protease activity, hydrolysis of BAPNA synthetic substrate (absorbance 415 nm). The class given is biochemical, papaya. To be noted: 37° C., Tricine buffer 50 mM, 10 mM CaCl2. The protocol: as §1, §2
The percentage inhibition was obtained from the ratio of enzyme activity in the presence of inhibitor to the activity of a control to which no inhibitor was added.

Setting [1] is: inhibitor concentration 0.5%, listed as hyaluronic acid.
[2] abbreviates: inhibitor concentration 1%, listed as glycogen.

Take Hyaluronic acid: the “Chymopapain % Inhibited” value is recorded as 34.2% with chymopapain (inhibitor concentration 0.5%) and “effective” in the test on chymopapain (setting [1]). In addition, the entries for the “Trypsin % Inhibited” value in the test on trypsin (inhibitor concentration 0.5%) and in the test with trypsin (setting [1]) were 0% and “no inhibiting effect”, respectively. In addition, the results for the “Clostripain % Inhibited” value in the test with clostripain (inhibitor concentration 0.5%) and with clostripain (setting [1]) were 0% and “no inhibiting effect”, respectively. The “Papain % Inhibited” value was 35.8% in the test with papain (inhibitor concentration 0.5%) and “effective” in the test with papain (setting [1]).

With Glycogen, the “effectiveness as inhibitor of chymopapain and papain activity relative to trypsin activity” value in the test with chymopapain (inhibitor concentration 1%) is 10-20 times. Besides, the “Chymopapain % Inhibited” value in the test with chymopapain (inhibitor concentration 1%) is 17%. In addition, the “Trypsin % Inhibited” value in the test with trypsin (inhibitor concentration 1%) was 1.1%; in the test on trypsin (setting [2]), “about 1%”. The figures for the “Clostripain % Inhibited” value in the test with clostripain (inhibitor concentration 1%) and in the test with clostripain (setting [2]) were 0% and “no inhibiting effect”, respectively. For the same substance, in the test on papain (inhibitor concentration 1%), the “Papain % Inhibited” value is given as 12.5%.

As to Desulfated heparin, the “Chymopapain % Inhibited” value in the test with chymopapain (inhibitor concentration 0.5%) was found to be 8.8%. In the test on trypsin (inhibitor concentration 0.5%), the “effectiveness in inhibiting trypsin relative to chymopapain and papain” value is given as “less than one-half as effective”; the “Trypsin % Inhibited” value is recorded as 4.1%. Besides, in the test with clostripain (inhibitor concentration 0.5%), the “effectiveness in inhibiting clostripain relative to chymopapain and papain” value is given as “about one-tenth as effective”; the “Clostripain % Inhibited” value was 0.8%. In the test on papain (inhibitor concentration 0.5%), the “Papain % Inhibited” value is given as 9.8%.
